# Source: patent publication US20240293493A1, “COMPOSITION FOR ALLEVIATING, TREATING, OR PREVENTING MUSCULAR DISEASES, OR IMPROVING MUSCULAR FUNCTIONS, CONTAINING KOREAN MINT EXTRACT OR TILIANIN AS ACTIVE INGREDIENT” (AAT COSTECH CO., LTD., priority 2020, published 2024)
# Columns and labels:
# mTOR = mTOR activity in L6 myotubes by mTOR sandwich ELISA kit; type: cell-based; conditions: 20 μM or 40 μM tilianin, vs control group
# Procedure: It is known that the activation of the mTOR protein by phosphorylation can induce muscle protein synthesis in muscle cells by the PI3K/Akt signaling pathway and can activate proteins involved in increase of muscle mass. Therefore, in order to investigate the activity of inducing muscle formation of Korean mint, the activity of mTOR was investigated using a mTOR sandwich ELISA kit (Cell Signaling Technology, Beverly, MA, USA).
# L6 myoblasts (ATCC; Manassas, VA, USA) were seeded on a 6-well plate at 1×10^5 cells/well with Dulbecco's modified Eagle's medium (DMEM; Hyclone) containing 10% fetal bovine serum (FBS; Hyclone, Logan, UT, USA) and then cultured for 24 hours. […]
# (Hyclone) containing 2% horse serum (HS; Hyclone). […] Proteins in the obtained cell lysate were quantified at a concentration of 1 mg/mL by Bradford assay (Bio-Rad Laboratories Inc., Hercules, CA, USA). […] 2 minutes later, the mTOR level in the myotubes treated with the extract of Korean mint leaf was measured by measuring absorbance at 450 nm. […] The difference between groups was analyzed through Duncan's multiple range test by one-way analysis of variance using the SPSS25.0 statistical package (SPSS Inc., Chicago, IL, USA). […]
# mTOR activity was measured in the same manner as in Example 3 except that the extracts of the aerial part of Korean mint of Example 1-2 to Example 1-8 were treated at 80 μg/mL. […]
# MuRF1 = MuRF1 mRNA expression in TNF-α-treated L6 myotubes (RT-PCR); type: cell-based; conditions: TNF-α treatment, 20 µM or 40 µM tilianin
# Procedure: (§1) L6 myoblasts (ATCC), which are muscle cells, were added to a 6-well plate with DMEM (Hyclone) containing 10% FBS (Hyclone) at 1×10^5 cells/mL. When the cell density reached about 80-85%, the medium remaining in the well was removed and differentiation into myotubes was induced by treating the cells with DMEM (Hyclone) containing 2% HS (Hyclone). The differentiation was performed for a total of 6 days while replacing the medium with a fresh one every 2 days. After the differentiation, […], which was dissolved in DMEM (Hyclone) containing 50 ng/ml tumor necrosis factor alpha (TNF-α; PeproTech, Rocky Hills, NJ, USA). 12 hours later, total RNA was isolated using a TRIzol reagent (Takara, Otsu, Japan). The isolated total RNA was quantified using NanoDrop 1000 (Thermo Fisher Scientific Inc., Waltham, MA, USA). cDNA was synthesized from 16 μL of the quantified RNAs using a reverse transcriptase premix (ELPIS-Biotech) and a PCR machine (Gene Amp PCR System 2700; Applied Biosystems, Foster City, CA, USA) under the condition of 42° C. for 55 minutes and 70° C. for 15 minutes. PCR was performed by repeating 30 cycles of 95° C. for 30 seconds, 60° C. for 1 minute and 72° C. for 1 minute using 1 μL of cDNA from 16 μL of the produced cDNA, specific primers described below (Bioneer, Daejeon, Korea) and a PCR premix (ELPIS-Biotech). […]
# atrogin-1 = atrogin-1 mRNA expression in TNF-α-treated L6 myotubes (RT-PCR); type: cell-based; conditions: TNF-α treatment, 20 µM or 40 µM tilianin
# Procedure: as §1
# [1] = test system: muscle atrophy-induced mice; assay: Muscular strength in mice with skin-stapler immobilization muscle atrophy; type: in vivo, mice (C57BL/6J); conditions: tilianin 20 mg/kg orally every day, compared with muscle atrophy group
# Procedure: (§2) 7-week-old male mice (C57BL/6J; DBL, Korea) were purchased as experimental animals. The breeding environment was maintained at a temperature of 23±2° C. and a relative humidity of 55±10%. Before the start of the experiment, a total of 20 mice were randomly divided into groups of 5 mice each. After a week of acclimation, anesthesia was induced by intraperitoneal injection of 325 mg/kg tribromoethanol (Sigma-Aldrich). After the anesthesia, the right hindlimb gastrocnemius muscle and the right sole of the mice in a muscle atrophy group and a sample administration group were stapled using a skin stapler (Unidus, Chungcheongbuk-do, Korea) to damage the muscle and keep the right hindlimb from moving. This state was maintained for a week. […]
# After the end of the oral administration period, the muscular strength of the mice was measured using a muscular strength meter (Panlab, Barcelona, Spain). […]
# (§3) After inducing muscle atrophy in the same manner as in Example 12-1, tilianin was orally administered every day at a concentration of 20 mg/kg. Then, muscular strength and muscle weight were measured in the same manner as in Example 12-2 and Example 12-3.
# [2] = test system: muscle atrophy-induced mice; assay: Tibialis anterior muscle weight in muscle atrophy-induced mice; type: in vivo, mice (C57BL/6J); conditions: tilianin 20 mg/kg orally every day, compared with muscle atrophy group
# Procedure: as §2, §3
smiles,measurement,setting,value
COc1ccc(-c2cc(=O)c3c(O)cc(O[C@@H]4O[C@H](CO)[C@@H](O)[C@H](O)[C@H]4O)cc3o2)cc1 [tilianin],mTOR activity (FIG. 3),mTOR,significantly increased
same,mRNA of MuRF1 (FIG. 4),MuRF1,decreased
same,mRNA of atrogin-1 (FIG. 4),atrogin-1,decreased
same,increase of muscular strength,[1],30.3%
same,increase of muscle weight,[2],15.2%
